Structures can show the parent of a compound that is named as a salt.
Target: T1, human EP4 (hEP4) receptor (Homo sapiens, UniProt P35408)
T1 construct: expressed in transfected cells; host or cells: HEK-293 T cells, transient co-transfection with polyethylenimine
Experiment: In vitro human EP4 functional antagonist activity using BRET biosensors (cAMP EPAC biosensor, TCS2510 stimulation)
Assay type: cell-based
Settings: antagonist activity vs EC60 TCS2510, hEP4 in HEK-293 T cells
In short: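 HEK-293T cells transiently co-transfected with hEP4 and EPAC cAMP BRET biosensor (luciferase/GFP), assayed 48 h later in HEPES-buffered saline after 1 h at 22 °C. After 5 min with compound, cells stimulated with EC60 TCS2510 and BRET read for 10 min; IC50 from 10-point, 4.5-log variable-slope fits, duplicate, two experiments.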

T1 sequence (P35408 whole entry): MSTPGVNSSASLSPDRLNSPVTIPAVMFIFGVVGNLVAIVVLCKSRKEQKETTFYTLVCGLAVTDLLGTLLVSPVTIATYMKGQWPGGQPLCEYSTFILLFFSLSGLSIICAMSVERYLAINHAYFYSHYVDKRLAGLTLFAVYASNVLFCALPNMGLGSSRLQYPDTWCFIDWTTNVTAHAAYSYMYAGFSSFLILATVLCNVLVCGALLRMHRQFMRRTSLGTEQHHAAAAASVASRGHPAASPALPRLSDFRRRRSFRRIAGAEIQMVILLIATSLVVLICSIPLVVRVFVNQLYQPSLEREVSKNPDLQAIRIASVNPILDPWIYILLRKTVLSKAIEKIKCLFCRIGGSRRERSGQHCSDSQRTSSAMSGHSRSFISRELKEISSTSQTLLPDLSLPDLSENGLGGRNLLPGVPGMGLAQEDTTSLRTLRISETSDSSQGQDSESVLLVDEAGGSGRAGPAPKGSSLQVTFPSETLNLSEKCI

IC50 [nM]	Structure (SMILES)
< 100	C[C@H](NC(=O)C1(N(C)CCOc2ccccc2)CCOCC1)c1ccc(C(=O)O)cc1 [Example 2, 4-[(1S)-1-[[4-[Methyl(2-phenoxyethyl)amino]tetrahydropyran-4-carbonyl]amino]ethyl]benzoic acid, hydrochloride]
< 100	Cc1cccc(OCCN(C)C2(C(=O)N[C@@H](C)c3ccc(C(=O)O)cc3)CCCCC2)c1 [Example 59, 4-[(1S)-1-[[1-[Methyl-[2-(3-methylphenoxy)ethyl]amino]cyclohexanecarbonyl]amino]ethyl]benzoic acid, hydrochloride]
< 1000	O=C(O)c1ccc(C2(NC(=O)C3(N(CCOc4ccccc4)CC4CC4)CCOCC3)CC2)cc1 [Example 27, 4-[1-[[4-[Cyclopropylmethyl(2-phenoxyethyl)amino]tetrahydropyran-4-carbonyl]amino]cyclopropyl]benzoic acid, hydrochloride]
< 100	C[C@H](NC(=O)C1(N2CC[C@@H](Oc3cccc(F)c3)C2)CCOCC1)c1ccc(C(=O)O)cc1 [Example 142, 4-[(1S)-1-[[4-[(3R)-3-(3-Fluorophenoxy)pyrrolidin-1-yl]tetrahydropyran-4-carbonyl]amino]ethyl]benzoic acid, hydrochloride]
< 100	O=C(O)c1ccc(C2(NC(=O)C3(N4CC[C@@H](Oc5cccc(C(F)(F)F)c5)C4)CCOCC3)CC2)cc1 [Example 145, 4-[1-[[4-[(3R)-3-[3-(Trifluoromethyl)phenoxy]pyrrolidin-1-yl]tetrahydropyran-4-carbonyl]amino]cyclopropyl]benzoic acid, hydrochloride]
< 1000	C[C@H](NC(=O)C1(c2cccc(OCCC3CCCCC3)c2)CCOCC1)c1ccc(C(=O)O)cc1 [Example 105, 4-[(1S)-1-[[4-[3-(2-Cyclohexylethoxy)phenyl]tetrahydropyran-4-carbonyl]amino]ethyl]benzoic acid]
< 1000	C[C@H](NC(=O)C1(N2CC[C@@H](Oc3cccc(C(F)(F)F)c3)C2)CCOCC1)c1cccnc1 [Example 185, N—((S)-1-(Pyridin-3-yl)ethyl)-4-((R)-3-(3-(trifluoromethyl)phenoxy)pyrrolidin-1-yl)tetrahydro-2H-pyran-4-carboxamide, hydrochloride]
< 1000	C[C@H](NC(=O)C1(N2CC[C@@H](Oc3cccc(C(F)(F)F)c3)C2)CCOCC1)c1ccccc1F [Example 189, N—((S)-1-(2-Fluorophenyl)ethyl)-4-((R)-3-(3-(trifluoromethyl)phenoxy)pyrrolidin-1-yl)tetrahydro-2H-pyran-4-carboxamide, hydrochloride]
< 1000	CC(C)CCOc1cccc(C2(C(=O)N[C@@H](C)c3ccc(C(=O)O)cc3)CCOCC2)c1 [Example 104, 4-[(1S)-1-[[4-(3-Isopentyloxyphenyl)tetrahydropyran-4-carbonyl]amino]ethyl]benzoic acid]
< 1000	C[C@H](NC(=O)C1(c2ccc(OCCC3CCCCC3)nc2)CCCC1)c1ccc(C(=O)O)cc1 [Example 130, 4-[(1S)-1-[[1-[6-(2-Cyclohexylethoxy)-3-pyridyl]cyclopentanecarbonyl]amino]ethyl]benzoic acid]
< 100	O=C(O)c1ccc(C2(NC(=O)C3(OCCOc4cccc(Cl)c4)CCOCC3)CC2)cc1 [Example 82, 4-[1-[[4-[2-(3-Chlorophenoxy)ethoxy]tetrahydropyran-4-carbonyl]amino]cyclopropyl]benzoic acid]
< 100	C[C@H](NC(=O)C(C)(C)N1CC[C@@H](COc2cccc(Cl)c2)C1)c1ccc(C(=O)O)cc1 [Example 209, 4-((S)-1-(2-((R)-3-((3-Chlorophenoxy)methyl)pyrrolidin-1-yl)-2-methylpropanamido)ethyl)benzoic acid]
< 1000	O=C(O)c1ccc(C2(NC(=O)C3(N4CCC[C@H](Oc5cccc(Cl)c5)C4)CCOCC3)CC2)cc1 [Example 135, 4-[1-[[4-[(3S)-3-(3-Chlorophenoxy)-1-piperidyl]tetrahydropyran-4-carbonyl]amino]cyclopropyl]benzoic acid, hydrochloride]
< 1000	CN(CCOc1ccccc1)C1(C(=O)NC2(c3ccc(C(=O)O)c(F)c3)CC2)CCOCC1 [Example 49, 2-Fluoro-4-[1-[[4-[methyl(2-phenoxyethyl)amino]tetrahydropyran-4-carbonyl]amino]cyclopropyl]benzoic acid, hydrochloride]
< 1000	C[C@H](NC(=O)C(C)(C)N1CC[C@@H](Oc2cccc(C(F)(F)F)c2)C1)c1ccc(S(C)(=O)=O)cc1 [Example 204, 2-Methyl-N—((S)-1-(4-(methylsulfonyl)phenyl)ethyl)-2-((R)-3-(3-(trifluoromethyl)phenoxy)pyrrolidin-1-yl)propanamide, hydrochloride]
< 100	CN(CCOc1ccc(F)cc1)C1(C(=O)NC2(c3ccc(C(=O)O)cc3)CC2)CCOCC1 [Example 34, 4-[1-[[4-[2-(4-Fluorophenoxy)ethyl-methyl-amino]tetrahydropyran-4-carbonyl]amino]cyclopropyl]benzoic acid, hydrochloride]

IC50 [nM]	Structure (SMILES)
< 1000	C[C@H](NC(=O)C1(NCCOc2ccc(Cl)c(Cl)c2)CCOCC1)c1ccc(C(=O)O)cc1 [Example 17, 4-[(1S)-1-[[4-[2-(3,4-Dichlorophenoxy)ethylamino]tetrahydropyran-4-carbonyl]amino]ethyl]benzoic acid, hydrochloride]
< 100	Cc1cccc(OCCNC2(C(=O)N[C@@H](C)c3ccc(C(=O)O)cc3)CCCCC2)c1 [Example 58, 4-[(1S)-1-[[1-[2-(3-Methylphenoxy)ethylamino]cyclohexanecarbonyl]amino]ethyl]benzoic acid, hydrochloride]
< 1000	Cc1cccc([C@H](C)NC(=O)C2(N3CC[C@@H](Oc4cccc(C(F)(F)F)c4)C3)CCOCC2)c1 [Example 194, N—((S)-1-(3-Methylphenyl)ethyl)-4-((R)-3-(3-(trifluoromethyl)phenoxy)pyrrolidin-1-yl)tetrahydro-2H-pyran-4-carboxamide, hydrochloride]
< 100	O=C(O)c1ccc(C2(NC(=O)C3(N4CC[C@@H](Oc5cccc(Cl)c5)C4)CCOCC3)CC2)cc1 [Example 141, 4-[1-[[4-[(3R)-3-(3-Chlorophenoxy)pyrrolidin-1-yl]tetrahydropyran-4-carbonyl]amino]cyclopropyl]benzoic acid, hydrochloride]
< 100	CCC(CC)(C(=O)N[C@@H](C)c1ccc(C(=O)O)cc1)N1CC[C@@H](Oc2cccc(Cl)c2)C1 [Example 210, 4-[(1S)-1-[[2-[(3R)-3-(3-Chlorophenoxy)pyrrolidin-1-yl]-2-ethylbutane-carbonyl]amino]ethyl]benzoic acid, hydrochloride]
< 100	C[C@H](NC(=O)C1(N2CC[C@@H](Oc3cccc(C(F)(F)F)c3)C2)CCOCC1)c1ccc(C#N)cc1 [Example 182, N—((S)-1-(4-Cyanophenyl)ethyl)-4-((R)-3-(3-(trifluoromethyl)phenoxy)pyrrolidin-1-yl)tetrahydro-2H-pyran-4-carboxamide, hydrochloride]
< 1000	C[C@H](NC(=O)C1(c2cccc(OCC3CCCCC3)c2)CCOCC1)c1ccc(C(=O)O)cc1 [Example 97, 4-[(1S)-1-[[4-[3-(Cyclohexylmethoxy)phenyl]tetrahydropyran-4-carbonyl]amino]ethyl]benzoic acid]
< 100	C[C@H](NC(=O)C1(c2ccnc(OCC3CCCCC3)c2)CCCC1)c1ccc(C(=O)O)cc1 [Example 124, 4-[(1S)-1-[[1-[2-(Cyclohexylmethoxy)-4-pyridyl]cyclopentanecarbonyl]amino]ethyl]benzoic acid]
< 100	C[C@H](NC(=O)C1(NCCOc2cccc(Cl)c2)CCCCC1)c1ccc(C(=O)O)cc1 [Example 56, 4-[(1S)-1-[[1-[2-(3-Chlorophenoxy)ethylamino]cyclohexanecarbonyl]amino]ethyl]benzoic acid, hydrochloride]
< 100	CN(CCOc1cccc(OC(F)(F)F)c1)C1(C(=O)NC2(c3ccc(C(=O)O)cc3)CC2)CCOCC1 [Example 43, 4-[1-[[4-[2-(3-Trifluoromethoxyphenoxy)ethyl-methyl-amino]tetrahydropyran-4-carbonyl]amino]cyclopropyl]benzoic acid, hydrochloride]
< 1000	CN(CCOc1ccc(Cl)cc1)C1(C(=O)NC2(c3ccc(C(=O)O)cc3)CC2)CCOCC1 [Example 31, 4-[1-[[4-[2-(4-Chlorophenoxy)ethyl-methyl-amino]tetrahydropyran-4-carbonyl]amino]cyclopropyl]benzoic acid, hydrochloride]
< 1000	C[C@H](NC(=O)C1(N2CC[C@@H](Oc3cccc(C(F)(F)F)c3)C2)CCOCC1)c1ccc(F)cc1 [Example 187, N—((S)-1-(4-Fluorophenyl)ethyl)-4-((R)-3-(3-(trifluoromethyl)phenoxy)pyrrolidin-1-yl)tetrahydro-2H-pyran-4-carboxamide, hydrochloride]
< 1000	C[C@H](NC(=O)C1(N2CC[C@@H](Oc3cccc(C(F)(F)F)c3)C2)CCOCC1)c1ccccc1Cl [Example 192, N—((S)-1-(2-Chlorophenyl)ethyl)-4-((R)-3-(3-(trifluoromethyl)phenoxy)pyrrolidin-1-yl)tetrahydro-2H-pyran-4-carboxamide, hydrochloride]
< 1000	C[C@H](NC(=O)C1(c2ccc(OCCC3CCCCC3)cn2)CCCC1)c1ccc(C(=O)O)cc1 [Example 128, 4-[(1S)-1-[[1-[5-(2-Cyclohexylethoxy)-2-pyridyl]cyclopentanecarbonyl]amino]ethyl]benzoic acid]
< 100	C[C@H](NC(=O)C1(N2CC[C@@H](Oc3cccc(C(F)(F)F)c3)C2)CCOCC1)c1ccc(C(=O)N(C)C)cc1 [Example 170, 4-[(1S)-1-[[4-[(3R)-3-[3-(Trifluoromethyl)phenoxy]pyrrolidin-1-yl]tetrahydropyran-4-carbonyl]dimethylamino]ethyl]benzamide, hydrochloride]
